Measured values from PubChem BioAssay (NCI).
“And” between values parts separate entries of the source, which are not always exact repeats. Equal entries are not always repeated.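 Values below derive from 48-hour exposures of cells grown in 96-well plates, with endpoints linearly interpolated between the two concentrations bracketing the appropriate inhibition level. TGI is the concentration that stops growth completely.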

Tests used:
Test in all cases: inhibition of tumour cell growth, NCI panel, 48 h
KM12 colon = test system: KM12 colon
U251 CNS = test system: U251 CNS
SW-620 colon = test system: SW-620 colon
SK-MEL-28 melanoma = test system: SK-MEL-28 melanoma
COLO 205 colon = test system: COLO 205 colon
SF-295 CNS = test system: SF-295 CNS
DU-145 prostate = test system: DU-145 prostate
T-47D breast = test system: T-47D breast
RPMI-8226 leukemia = test system: RPMI-8226 leukemia
UACC-62 melanoma = test system: UACC-62 melanoma
TK-10 renal = test system: TK-10 renal
M14 melanoma = test system: M14 melanoma
RXF 393 renal = test system: RXF 393 renal
UO-31 renal = test system: UO-31 renal
EKVX NSCLC = test system: EKVX NSCLC
786-0 renal = test system: 786-0 renal
UACC-257 melanoma = test system: UACC-257 melanoma
BT-549 breast = test system: BT-549 breast
LOX IMVI melanoma = test system: LOX IMVI melanoma
OVCAR-8 ovarian = test system: OVCAR-8 ovarian

SMILES | TGI (KM12 colon) | TGI (U251 CNS) | TGI (SW-620 colon) | TGI (SK-MEL-28 melanoma) | TGI (COLO 205 colon) | TGI (SF-295 CNS) | TGI (DU-145 prostate) | TGI (T-47D breast) | TGI (RPMI-8226 leukemia) | TGI (UACC-62 melanoma) | TGI (TK-10 renal) | TGI (M14 melanoma) | TGI (RXF 393 renal) | TGI (UO-31 renal) | TGI (EKVX NSCLC) | TGI (786-0 renal) | TGI (UACC-257 melanoma) | TGI (BT-549 breast) | TGI (LOX IMVI melanoma) | TGI (OVCAR-8 ovarian)
CC1OC(OC2C(OC(=O)[C@]34CCC(C)(C)C[C@H]3C3=CC[C@@H]5[C@@]6(C)CC[C@H](OC7OC(CO)C(O)C(O)C7OC7OC(CO)C(O)C(O)C7O)C(C)(C)[C@@H]6CC[C@@]5(C)[C@]3(C)CC4)OCC(O)C2O)C(O)C(O)C1OC1OCC(O)C(OC2OCC(O)C(O)C2O)C1O (stereo partly drawn) | 11.8 µM and 12.5 µM | 22.9 µM and 19.7 µM | 25.3 µM and 23.6 µM | 3.9 µM and 3.82 µM | 3.42 µM and 6.5 µM | 13.1 µM and 10.7 µM | 19.2 µM and 20.8 µM | 21.8 µM and 16.6 µM | 16.1 µM and 17.4 µM | 6.58 µM and 4.71 µM | 21.1 µM and 21.8 µM | 3.98 µM and 3.49 µM | 20.5 µM and 24.7 µM | 4.14 µM and 3.85 µM | 8.6 µM and 7.32 µM | 18.9 µM and 19.7 µM | 6.02 µM and 5.36 µM | 10.8 µM | 24 µM and 23.6 µM | 26.9 µM and 21.7 µM
CCCCOCOc1ccccc1P1(=O)COc2ccccc2OC1 | > 100 µM | > 100 µM | > 100 µM | > 100 µM | > 100 µM | > 100 µM | > 100 µM | > 100 µM | > 100 µM | > 100 µM | 94.1 µM | > 100 µM | > 100 µM | > 100 µM | > 100 µM | > 100 µM | > 100 µM | > 100 µM | > 100 µM | 
O=C1NC(=S)NC(=O)C1=Cc1ccc(-c2ccccc2)cc1 | > 100 µM | > 100 µM | > 100 µM |  | > 100 µM | > 100 µM | > 100 µM | > 100 µM | > 100 µM | > 100 µM | > 100 µM | > 100 µM | > 100 µM | > 100 µM | > 100 µM | > 100 µM | > 100 µM | > 100 µM | > 100 µM | > 100 µM
COC1CC(C)([N+](=O)[O-])C(O)C(C)O1 (stereo not drawn) | > 100 µM | > 100 µM | > 100 µM | > 100 µM | > 100 µM | > 100 µM | > 100 µM | > 100 µM | > 100 µM | > 100 µM | > 100 µM | > 100 µM | > 100 µM | > 100 µM | > 100 µM | > 100 µM | > 100 µM | > 100 µM | > 100 µM | > 100 µM
O=[N+]([O-])c1ccc(C2=NOC(c3ccc(Cl)cc3)N2C23CC4CC(CC(C4)C2)C3)cc1 (stereo not drawn) | > 100 µM | > 100 µM | > 100 µM | > 100 µM | > 100 µM | > 100 µM | > 100 µM | > 100 µM | > 100 µM | > 100 µM | > 100 µM | > 100 µM | 9.89 µM | > 100 µM | > 100 µM | > 100 µM | > 100 µM | > 100 µM | > 100 µM | > 100 µM
CC(=O)OCC1OC(n2c(N)c(C#N)c(C)c(C#N)c2=S)C(OC(C)=O)C(OC(C)=O)C1OC(C)=O (stereo not drawn) | > 100 µM | > 100 µM | > 100 µM | > 100 µM | > 100 µM | > 100 µM | > 100 µM | > 100 µM | > 100 µM | > 100 µM | > 100 µM | > 100 µM | > 100 µM | > 100 µM | > 100 µM | > 100 µM | > 100 µM | > 100 µM | > 100 µM | > 100 µM
NC(=O)NNCc1c(-c2ccccc2)no[n+]1[O-] | > 100 µM | > 100 µM | > 100 µM | > 100 µM | > 100 µM | > 100 µM | > 100 µM | > 100 µM | > 100 µM | > 100 µM | > 100 µM | > 100 µM | > 100 µM | > 100 µM | > 100 µM | > 100 µM | > 100 µM | > 100 µM | > 100 µM | > 100 µM
CCCCC(/C=C\COC1CCCCO1)=C/C(=O)OCC (stereo not drawn) | > 100 µM | > 100 µM | > 100 µM | > 100 µM | > 100 µM | > 100 µM | > 100 µM | > 100 µM | > 100 µM | > 100 µM | > 100 µM | > 100 µM | > 100 µM | > 100 µM | > 100 µM | > 100 µM | > 100 µM | > 100 µM | > 100 µM | > 100 µM
CCc1cc2c(c3c1CCCC3)CC1(Cc3ccc(C(=O)OC)cc3C1)C2 (stereo not drawn) | > 100 µM | > 100 µM | > 100 µM | > 100 µM | > 100 µM | > 100 µM | > 100 µM | > 100 µM | > 100 µM | > 100 µM | > 100 µM | > 100 µM | > 100 µM | > 100 µM | > 100 µM | > 100 µM | > 100 µM | > 100 µM | > 100 µM | > 100 µM
CN=C(N)N=Nc1c(O)[nH]c2ccccc12 | > 100 µM | > 100 µM | > 100 µM | > 100 µM | > 100 µM | > 100 µM | > 100 µM | > 100 µM | > 100 µM | > 100 µM | > 100 µM | > 100 µM | > 100 µM | > 100 µM | > 100 µM | > 100 µM | > 100 µM | > 100 µM | > 100 µM | > 100 µM
CCOC(=O)c1nc2ccccc2nc1Nc1ccc(OC)cc1 | > 100 µM | > 100 µM | > 100 µM | > 100 µM | > 100 µM | 54.4 µM | > 100 µM | > 100 µM | > 100 µM | 66.6 µM | > 100 µM | > 100 µM | 39.7 µM | > 100 µM | > 100 µM | > 100 µM | > 100 µM | 73.6 µM | > 100 µM | > 100 µM
CCCC(C)NC(=O)c1ccc(N(C)Cc2cnc3nc(N)nc(N)c3n2)cc1 (stereo not drawn) | > 100 µM | > 100 µM | > 100 µM | 42.3 µM | > 100 µM | > 100 µM | > 100 µM | 53.9 µM | > 100 µM | 25.7 µM | 86.1 µM | 31.1 µM | 84.5 µM | > 100 µM | > 100 µM | > 100 µM | 57.5 µM | 41.6 µM | 82.6 µM | 75.2 µM
